Patent US20090233917A1, “Stroke recovery” (priority 2006, published 2009)

Tests used:
[1] = tested on: bacterial reverse mutation; experiment: Standard bacterial reverse mutation assays
[2] = tested on: transient global cerebral ischemia in gerbils; experiment: Neuroprotection from transient global cerebral ischemia in gerbils; assay type: in vivo, Mongolian gerbils; conditions: 50 mg/kg intraperitoneally prior to surgery; two experiments
Experimental: Adult male Mongolian gerbils weighing 60-80 g were intraperitoneally administered 50 mg/kg of Compound 2 prior to surgery to induce transient global cerebral ischemia. The gerbils were operated under anesthesia with 2% halthane in a gas mixture of 70% N2O and 30% O2, followed by maintenance at 1% halothane to surgically expose and clamp the carotid arteries for 5 minutes to prevent the blood flow to the brain. After 5 minutes, the clamps were removed and reperfusion occurred. The gerbils were evaluated for motility and spontaneous alteration in a Y maze test essentially as described in Gupta and Sharma, Biol. Pharm. Bull. 29(5) 957-961 (2006), and were decapitated 4 days after reperfusion for histological evaluation for the neuronal survival in the hippocampal CA-1 area.

[3] = tested on: cardiac ischemia/reperfusion in rats; experiment: Experimental cardiac ischemia/reperfusion in rats; assay type: in vivo; conditions: administered prior to ischemia/reperfusion
[4] = tested on: mice under cytotoxic hypoxia; conditions: mouse, in vivo
in vivo = conditions: mouse
[5] = tested on: permanent middle cerebral artery occlusion (MCAO) in rats; experiment: Functional recovery following permanent MCAO in rats (Example 1); assay type: in vivo, Sprague Dawley Rats; conditions: for Infarct Volume (%): day 28 after permanent MCAO, percentage of intact contralateral hemispheric volume, mean ± S.E.M.
Excerpt: The purpose of this study was to evaluate the efficacy of arimoclomol and iroxanadine in enhancing neurological recovery in a model of permanent middle cerebral artery occlusion (MCAO) in rats. The permanent MCAO is a well accepted and considered to be a standard animal model for studying clinical aspects of stroke. (Stroke. 1999; 30:2752-2758.)
Forty male Sprague Dawley Rats, each weighing 300-400 g, which had been housed and handled for behavioral assessment for seven (7) days prior to surgery for acclimation purposes, were operated under anesthesia to create focal cerebral infarcts by permanent occlusion of the proximal right middle cerebral artery (MCA) according to modified Tamura model. Briefly, the rats were anesthetized with 2-3% halothane in the mixture of N2O:O2 (2:1), and were maintained with 1˜1.5% halothane in the mixture of N2O:O2 (2:1). The temporalis muscle was bisected and reflected through an incision made midway between the eye and the eardrum canal. The proximal MCA was exposed through a subtemporal craniectomy without removing the zygomatic arch and without transecting the facial nerve. […] Body temperature was maintained at 37.5° C.±0.5° C. throughout the entire procedure. Cefazolin (40 mg/kg; Baxter, Lot 06014.1, Exp. January 2009) was given i.p. one day before MCAO and just after MCAO to prevent infections.
The rats were randomly divided into 4 groups of 10 animals each. One group was given arimoclomol, p.o., starting at one hour after the occlusion at 200 mg/kg/d once daily for 3 days, then 50 mg/kg/d once daily for a total of 29 days. The second group was given iroxanadine using the same dosing regimen as for arimoclomol. The third group is a positive control group and is given intracistemally 1 μg (at 20 μg/ml, also containing 100 μg/ml of bovine serum albumin) beta-fibroblast growth factor (bFGF) one hour and one day (i.e. two administrations) after the occlusion. The fourth group is a negative control with administration of the vehicle only.
Animals were evaluated preoperation (day −1), then every 7 days after the operation (7, 14, 21, and 28 days) by forelimb and hindlimb placing tests and body swing test, which are widely accepted as standard tests indicative of functional recovery after a stroke model.
For the forelimb placing test, the examiner held the rat close to a tabletop and scored the rat's ability to place the forelimb on the tabletop in response to whisker, visual, tactile, or proprioceptive stimulation. Similarly, for the hindlimb placing test, the examiner assessed the rat's ability to place the hindlimb on the tabletop in response to tactile and proprioceptive stimulation. Separate sub-scores were obtained for each mode of sensory input (halfpoint designations possible), and added to give total scores (for the forelimb placing test: 0=normal, 12=maximally impaired; for the hindlimb placing test: 0=normal; 6=maximally impaired).
For the body swing test, the rat was held approximately one inch from the base of its tail. It was then elevated to an inch above a surface of a table. The rat was held in the vertical axis, defined as no more than […] to either the left or the right side. A swing was recorded whenever the rat moved its head out of the vertical axis to either side. The rat must return to the vertical position for the next swing to be counted. Thirty (30) total swings were counted. A normal rat typically has an equal number of swings to either side. Following focal ischemia, the rat tends to swing to the contralateral (left) side.
The behavior was evaluated by giving the score ranging in the parentheses after each test: • Forelimb placing test (0-12), consisting of whisker tactile placing (0-2); visual placing (forward, sideways) (0-4); tactile placing (dorsal, lateral) (0-4); and proprioceptive placing (0-2); • Hindlimb placing test (0-6), consisting of tactile placing (dorsal, lateral) (0-4); and proprioceptive placing (0-2). […]

[6] = treatment from 1 h after occlusion, up to 28 days

Compound	mutagenicity [1]	neuroprotection (motility, Y maze, neuronal survival in hippocampal CA-1) compared to control group [2]	duration of ventricular arrhythmias [3]	overall survival [3]	survival time under cytotoxic hypoxia [4]	LD50 (in vivo) [mg/kg]	Infarct Volume (%) [5] [%]	Body Swing Test, recovery compared to vehicle group [5, 6]	Forelimb Placing Test, recovery compared to vehicle group [5, 6]	Hindlimb Placing Test, recovery compared to vehicle group [5, 6]
CC(C)(C)NCC(O)CO/N=C(\Cl)c1cccc(C(F)(F)F)c1 (centres unmarked) [Compound 2, N-[3-(1,1-dimethylethyl)amino-2-hydroxypropoxy]-3-trifluoromethylbenzene-carboximidoyl chloride]	not to be mutagenic	neuroprotective effects	significantly decreased	increased	significantly increased	~1000				
c1cncc(C2=NOCC(CN3CCCCC3)N2)c1 (centres unmarked) [iroxanadine, 5,6-dihydro-5(1-piperidinyl)-methyl-3-(3-pyridyl)-4H-1,2,4-oxadiazine]							21.8 ± 2.1			
bFGF: positive control, beta-fibroblast growth factor (bFGF) given intracisternally							23.1 ± 1.7	superior to the vehicle group	superior to the vehicle group	superior to the vehicle group
